Numbers after ± are expanded uncertainties.
Details: Liquid, Closed cell (Static) method

Structure (SMILES)	vapor or sublimation pressure (273.15 K) [kPa]	vapor or sublimation pressure (283.15 K) [kPa]	vapor or sublimation pressure (293.15 K) [kPa]	vapor or sublimation pressure (303.15 K) [kPa]	vapor or sublimation pressure (313.15 K) [kPa]	vapor or sublimation pressure (323.15 K) [kPa]	vapor or sublimation pressure (333.15 K) [kPa]	vapor or sublimation pressure (343.15 K) [kPa]	vapor or sublimation pressure (353.15 K) [kPa]	vapor or sublimation pressure (363.15 K) [kPa]
c1ccsc1 [thiophene]	2.778 ± 0.17	4.893 ± 0.29	8.217 ± 0.49	13.23 ± 0.8	20.52 ± 1.2	30.8 ± 1.9	44.88 ± 2.7	63.71 ± 3.8	88.33 ± 5.3	119.9 ± 7.2
c1ccncc1 [pyridine]	0.5993 ± 0.037	1.136 ± 0.071	2.049 ± 0.12	3.535 ± 0.21	5.863 ± 0.35	9.383 ± 0.56	14.55 ± 0.88	21.92 ± 1.3	32.17 ± 1.9	46.13 ± 2.8
